# Assay results published in patent US20060008506A1, “Method for preparing therapeutic ophthalmic articles using compressed fluids” (priority 2004, published 2006).
# Tests used:
# [1] = in vitro sustained release kinetic study of impregnated Focus Monthly (Vifilcon A) hydrogel contact lens in physiological serum; format: physicochemical; details: 90.0 bar, 40.0° C.; for release time at which maximum cumulative amount was attained: 0.9% NaCl at 37° C.; for maximum cumulative amount of released Flurbiprofen: 30 min
# Description: A Focus® Monthly® (Ciba Vision, Ga., USA) hydrogel contact lens (ionic, high hydration, FDA Group IV, 55% water+45% Vifilcon A copolymer) was treated by means of the above-mentioned first embodiment of the process, in accordance with the invention and according to FIG. 1. The ophthalmic article was contacted in a sealed high pressure vessel with a mixture of compressed carbon Dioxide (99.998% purity, Air Liquid), Flurbiprofen (CAS[5104-49-4], 97% purity, Sigma-Aldrich) and Ethanol (CAS[64-17-5], 99.8% purity, Fluka), as co-solvent (5% molar in respect of carbon Dioxide). The operating conditions were 90.0 bar and 40.0° C. No stirring was employed. After a 30 minute processing time, the vessel was slowly expanded (for 1.5 minutes) and the compressed fluid (carbon Dioxide) was removed. Part of the co-solvent (Ethanol) was dragged out of the system by the Carbon Dioxide, while its remaining part precipitated, as a liquid, to the bottom of the high pressure vessel. The high pressure vessel was then removed from the temperature controlled bath, opened and the ophthalmic article was recovered, impregnated with Flurbiprofen. Later on, the impregnated ophthalmic article was placed in 5 ml of physiological serum (saline solution, 0.9% NaCl) inside a closed vessel. This vessel was subsequently placed inside a temperature controlled bath (at 37° C.), in order to carry out the in vitro sustained release kinetic study of the drug (Flurbiprofen). At regular time intervals (shorter time intervals at the beginning), 3 ml of the release solution (containing the released drug) were removed from the vessel and replaced by 3 ml of fresh physiological serum. The concentration of Flurbiprofen was determined by spectroscopy for each sample collected. A Focus® Monthly® (Ciba Vision, Ga., USA) hydrogel contact lens (ionic, high hydration, FDA Group IV, 55% water+45% Vifilcon A copolymer) was treated by means of the above-mentioned first embodiment of the process, in accordance with the invention and according to FIG. 1. The ophthalmic article was contacted in a sealed high pressure vessel with a mixture of Carbon Dioxide (99.998% purity, Air Liquide) and Flurbiprofen (CAS[5104-49-4], 97% purity, Sigma-Aldrich). No co-solvent was added. The operating conditions were 90.0 bar and 40.0° C. No stirring was employed. After a 30 minute processing time, the vessel was slowly expanded (for 15 minutes) and the compressed fluid (Carbon Dioxide) was removed. The high pressure vessel was then removed from the temperature controlled bath, opened and the ophthalmic article was recovered, impregnated with Flurbiprofen. The in vitro kinetic studies concerning the release of Flurbiprofen were conducted in accordance with the experimental procedures already described at Example 1.
# [2] = in vitro release kinetic study of impregnated Focus Dailies (Nelfilcon A) hydrogel contact lenses after three-month storage; format: physicochemical; details: for maximum cumulative amount of released Flurbiprofen: CO2, 41° C., after three months storage in 0.9% NaCl
# Description: Later on, the impregnated ophthalmic article was placed in 5 ml of physiological serum (saline solution, 0.9% NaCl) inside a closed vessel. This vessel was subsequently placed inside a temperature controlled bath (at 37° C.), in order to carry out the in vitro sustained release kinetic study of the drug (Flurbiprofen). At regular time intervals (shorter time intervals at the beginning), 3 ml of the release solution (containing the released drug) were removed from the vessel and replaced by 3 ml of fresh physiological serum. The concentration of Flurbiprofen was determined by spectroscopy for each sample collected. Two Focus® […]® (Ciba Vision, Ga., USA) hydrogel contact lenses (non ionic, high hydration, FDA Group II, 69% water+31% Nelfilcon A copolymer) were separately treated in two different experiments (I and II) by means of the above-mentioned third embodiment of the process, in accordance with the invention and according to FIG. 3. In both experiments, the ophthalmic articles processed were impregnated with Flurbiprofen (CAS[5104-49-4], 97% purity, Sigma-Aldrich) using Carbon Dioxide (99.998% purity, Air Liquide). No co-solvent was added and no stirring was employed. In experiment I, the operating conditions were 41° C. and 90 bar, while in experiment II the operating conditions were 41° C. and 120 bar. In both experiments, drug solubilization was carried out for 1 hour and 30 minutes, and impregnation was carried out for 1 hour. After impregnation, the vessel was slowly depressurized (for 15 minutes) and the compressed fluid (Carbon Dioxide) was removed. The high pressure vessel was then removed from the temperature controlled bath, opened and the ophthalmic article was recovered, impregnated with Flurbiprofen. Afterwards, the two ophthalmic articles were stored and preserved in physiological serum (saline solution, 0.9% NaCl) in closed vessels, for three months. After this period, in vitro kinetic studies were carried out in respect of Flurbiprofen release, following the experimental procedures already described at Example 1.
# [3] = analysis of preservation and storage media after three-month storage of impregnated Focus Dailies lenses; format: physicochemical; details: for effective total mass of Flurbiprofen impregnated in the article: sum of storage and release amounts; for mass of Flurbiprofen released in preservation and storage media: three-month storage in 0.9% NaCl
# Description: Afterwards, the two ophthalmic articles were stored and preserved in physiological serum (saline solution, 0.9% NaCl) in closed vessels, for three months. After this period, in vitro kinetic studies were carried out in respect of Flurbiprofen release, following the experimental procedures already described at Example 1.
# The maximum cumulative amount of released Flurbiprofen was about 0.007 mg for experiment I and about 0.035 mg for experiment II. These amounts were actually attained after 7 hours of release kinetic studies. […] However, in these cases it cannot be assumed that these values correspond to the total amount of Flurbiprofen impregnated in each ophthalmic article, given that part of the impregnated drug was released in the preservation medium during the three-month storage period. Preservation and storage media were also analyzed and the mass of Flurbiprofen released therein was about 0.0030 mg for experiment I and about 0.0025 mg for experiment II. Therefore, we can assume that the effective total mass of Flurbiprofen impregnated in the two articles was 0.0100 mg and 0.0375 mg respectively for experiments I and II.
# baboons = details: single dose of 125 mg/Kg; cited from earlier work
# inflammatory processes = details: cited from earlier work
smiles,measurement,setting,value
CC(C(=O)O)c1ccc(-c2ccccc2)c(F)c1 (stereo not shown) [Flurbiprofen],release time at which maximum cumulative amount was attained,[1]; Example 1: CO2 + ethanol co-solvent,24 h
same,maximum cumulative amount of released Flurbiprofen,"[1]; Example 1: Focus Monthly lens impregnated with CO2 + 5% molar ethanol co-solvent, release in 5 ml 0.9% NaCl at 37° C.",about 0.25 mg
same,release time at which maximum cumulative amount was attained,"[1]; Example 2: CO2, no co-solvent",6 h
same,maximum cumulative amount of released Flurbiprofen,"[1]; Example 2: Focus Monthly lens impregnated with CO2, no co-solvent, release in 0.9% NaCl at 37° C.",about 0.11 mg
same,maximum cumulative amount of released Flurbiprofen,"[2]; Example 3, experiment I: Focus Dailies lens, 90 bar",about 0.007 mg
same,maximum cumulative amount of released Flurbiprofen,"[2]; Example 3, experiment II: Focus Dailies lens, 120 bar",about 0.035 mg
same,release time at which maximum cumulative amounts were attained,"[2]; Example 3, experiments I and II",7 h
same,effective total mass of Flurbiprofen impregnated in the article,"[3]; Example 3, experiment I (41° C., 90 bar)",0.0100 mg
same,mass of Flurbiprofen released in preservation and storage media,"[3]; Example 3, experiment I (90 bar)",about 0.0030 mg
same,effective total mass of Flurbiprofen impregnated in the article,"[3]; Example 3, experiment II (41° C., 120 bar)",0.0375 mg
same,mass of Flurbiprofen released in preservation and storage media,"[3]; Example 3, experiment II (120 bar)",about 0.0025 mg
same,acute toxicity,baboons,no acute toxicity
same,minimum amount of Flurbiprofen to be kept in the eye to prevent inflammatory processes,inflammatory processes,0.03 to 0.15 µg
